Reference: patent US5905073A, “Use of 2-hydroxy-5-phenylazobenzoic acid derivatives as colon cancer chemopreventative and chemotherapeutic agents” (priority 1996, dated 1999)
pIC50: −log10 of the molar value. “Also recorded” adds a separate entry of the source. Like-named read-outs stand apart in the source and are kept apart here.

Assays:
[1] = test system: HT-29 cells; test: Proliferation of HT-29 colon cancer cells, Coulter Counter cell count; type: cell-based, human; conditions: for Cell No. on Day 10: average of triplicate wells; for activity at 10000 µM: read-out: % of Control Cells
Procedure: (§1) Cells were grown in Dulbeccos Modified Eagle medium supplemented with 10% calf serum in an atmosphere of 5% CO2 at 37° C. For growth experiments, cells were seeded into 24-well tissue culture dishes (2 cm^2 /well) at a density of 20,000 cells/well and allowed to attach for 12 hours. The growth medium was then changed and replaced with fresh media containing the test drugs.
(§2) The test drugs were dissolved in tissue culture media at the desired concentration and added to individual wells. To determine the number of cells per well, media was removed and the cells washed with phosphate buffered saline solution. The cells were then incubated 15 minutes with trypsin-EDTA solution until detached. The detached cells were then removed from the wells and counted using a Coulter Counter (Model ZBI).
(§3) The cell numbers shown in Table I are the average of triplicate culture wells.

[2] = test system: LS174T cells; test: Proliferation of LS174T colon cancer cells, Coulter Counter cell count; type: cell-based, human; conditions: for Cell No. on Day 10: average of triplicate wells; for activity at 10000 µM: 240 h
Procedure: as §1, §2, §3

[3] = test system: human colon cancer cells; test: Colon cancer cell proliferation in vitro, comparative statements; type: cell-based
Procedure: as §1, §2, §3
(§4) For dose response studies a sensitive dye binding assay was adapted which allows simultaneous assay of multiple agents and doses in 96-well plates. Cells were plated and allowed to adhere for 24 hours prior to addition of the study drug. Cell densities were then determined 4 days later by fixation of the wells and staining with Sulforhodamine B dye. Optical density of the stained cultures was then determined using a 96-well plate reader at 495 nm (Skehan et al. (1990) J. Natl. Cancer Inst. 82:1107-1112).
Two such oxidation products, gentisic acid (Dull et al. (1987) Biochem. Pharmacol. 36:2467-2472) and 5-nitro-salicylate (Laffafian et al. (1991) Biochem. Pharmacol. 42:1869-1874) have been elucidated.

[4] = cited from earlier work; for absorption: oral balsalazide
[5] = test system: HT-29 cells; test: Dose response growth inhibition of HT-29 cells, Sulforhodamine B dye binding assay; type: cell-based, human; conditions: for pIC50: Homo sapiens
Procedure: as §4, with “dye.” for “dye. Optical density of the stained cultures was then determined using a 96-well plate reader at 495 nm (Skehan et al. (1990) J. Natl. Cancer Inst. 82:1107-1112).”

[6] = test system: LS174T cells; test: Dose response growth inhibition of LS174T cells, Sulforhodamine B dye binding assay; type: cell-based, human; conditions: for pIC50: Homo sapiens
Procedure: as §4, with “dye.” for “dye. Optical density of the stained cultures was then determined using a 96-well plate reader at 495 nm (Skehan et al. (1990) J. Natl. Cancer Inst. 82:1107-1112).”

[7] = test system: LoVo cells; test: Growth inhibition of LoVo colon cancer cells; type: cell-based; conditions: Homo sapiens, Table IV, read-out: IC50 for inhibition of human colon cancer cell proliferation
Procedure: as §4, with “dye.” for “dye. Optical density of the stained cultures was then determined using a 96-well plate reader at 495 nm (Skehan et al. (1990) J. Natl. Cancer Inst. 82:1107-1112).”

[8] = test system: HRT-18 cells; test: Growth inhibition of HRT-18 colon cancer cells; type: cell-based; conditions: Homo sapiens; HRT-18, Table IV; read-out: IC50 for inhibition of human colon cancer cell proliferation
Procedure: as §4, with “dye.” for “dye. Optical density of the stained cultures was then determined using a 96-well plate reader at 495 nm (Skehan et al. (1990) J. Natl. Cancer Inst. 82:1107-1112).”

[9] = test system: LS174T cells; test: LS174T growth with freshly dissolved or pre-dissolved 5-ASA; type: cell-based; conditions: Homo sapiens, 96 h
Procedure: Cells were grown an additional 4 days prior to quantitation.

[10] = test system: colon cancer cells; test: 5-ASA growth inhibitory activity following hypochlorite exposure; type: cell-based; conditions: for inhibition at 10000 µM: 5-ASA 10 mM, read-out: Increase in Growth Inhibition
Excerpt: Indeed certain of its therapeutic benefits in the treatment of intestinal inflammation are thought to be derived from its ability to scavenge free radicals including O2^- released from inflammatory cells and thereby reduced oxidative damage.

[11] = test system: rectal mucosal reactive oxygen metabolite production; conditions: rectal biopsies, ulcerative colitis patients; cited from earlier work
[12] = test system: nitrosamine formation; conditions: from arginine-dependent nitric oxide; cited from earlier work
[13] = test system: colon cancer incidence; conditions: cited from earlier work
[14] = test system: polyps; conditions: cited from earlier work; for effect on polyps: sulindac: nine familial polyposis patients, randomized placebo-controlled double-blind crossover
[15] = in vivo; cited from earlier work
[16] = test system: colon carcinogenesis; conditions: cited from earlier work
[17] = Homo sapiens, 240 h, HT-29, 10 mM, Day 10
[18] = Homo sapiens, 10 mM, Day 10, read-out: % of Control Cells
[19] = HT-29, Table IV, read-out: IC50 for inhibition of human colon cancer cell proliferation
[20] = Table IV, read-out: IC50 for inhibition of human colon cancer cell proliferation

Question: With `Nc1ccc(C(=O)NCCC(=O)O)cc1` [4-ABA, 4-aminobenzoyl-β-alanine] as the compound, how does the “Cell No. on Day 10” value ([1]; HT-29, 10 mM) read?
Answer: 1316625

Question: And the activity at 10000 µM [1, 17]?
Answer: 100%

Question: What about the “Cell No. on Day 10” value ([2]; 10 mM) of the same compound?
Answer: 768700

Question: What about the activity at 10000 µM [2, 18] of the same compound?
Answer: 108%

Question: And the “inhibition of colon cancer cell growth (in words)” value [3]?
Answer: inactive

Question: What about the absorption [4] of the same compound?
Answer: poorly absorbed

Question: With `Nc1ccc(O)c(C(=O)O)c1` [5-ASA, 5-aminosalicylic acid] as the compound, how does the “Cell No. on Day 10” value ([1]; HT-29, 10 mM) read?
Answer: 512825

Question: And the activity at 10000 µM [1, 17]?
Answer: 39%

Question: What about the inhibition at 10000 µM ([1]; Homo sapiens, HT-29, 10 mM, read-out: growth inhibition) of the same compound?
Answer: 82%

Question: And the “Cell No. on Day 10” value ([2]; 10 mM)?
Answer: 8675

Question: And the inhibition at 10000 µM ([2]; Homo sapiens, 10 mM, read-out: growth inhibition)?
Answer: 85%

Question: What about the activity at 10000 µM [2, 18] of the same compound?
Answer: 1.22%

Question: What about the “increase in cell number” value ([5]; HT-29, 0.1-4 mM) of the same compound?
Answer: approximately 20%

Question: And the pIC50 [5, 19]?
Answer: 1.92

Question: What about the pIC50 ([5]; HT-29, text (FIG. 5), read-out: IC50) of the same compound?
Answer: 1.93

Question: What about the “increase in cell number” value ([6]; 0.1-1.0 mM) of the same compound?
Answer: approximately 20%

Question: What about the pIC50 [6, 20] of the same compound?
Answer: 1.94

Question: And the pIC50 ([6]; text (FIG. 5), read-out: IC50)?
Answer: 1.94

Question: And the pIC50 [7]?
Answer: 1.99

Question: And the pIC50 [8]?
Answer: 1.98

Question: What about the activity at 10000 µM ([9]; 10 mM dissolved in culture media 4 days prior, read-out: growth response relative to control cultures) of the same compound?
Answer: 22.9%

Question: What about the activity at 10000 µM ([9]; freshly dissolved 10 mM, 4 days, read-out: growth response relative to control cells) of the same compound?
Answer: 82.7%

Question: And the inhibition at 10000 µM ([10]; Na hypochlorite 0 mM)?
Answer: 0%

Question: What about the inhibition at 10000 µM ([10]; Na hypochlorite 0.01 mM) of the same compound?
Answer: 2%

Question: What about the inhibition at 10000 µM ([10]; Na hypochlorite 0.05 mM) of the same compound?
Answer: 4%

Question: And the inhibition at 10000 µM ([10]; Na hypochlorite 0.1 mM)?
Answer: 8%

Question: And the inhibition at 10000 µM ([10]; Na hypochlorite 0.2 mM)?
Answer: 26%

Question: And the inhibition at 10000 µM ([10]; Na hypochlorite 0.3 mM)?
Answer: 42%

Question: And the inhibition at 10000 µM ([10]; Na hypochlorite 0.4 mM)?
Answer: 48%

Question: And the Basal inhibitory activity ([10]; unoxidized 5ASA)?
Answer: 45%

Question: What about the “conversion to N-acetyl-5-ASA and excretion in urine” value ([4]; single dose of balsalazide, 96-hour period) of the same compound?
Answer: majority

Question: What about the “reduction of rectal mucosal reactive oxygen metabolite production” value [11] of the same compound?
Answer: over 90%

Question: What about the “inhibition of nitrosamine formation” value [12] of the same compound?
Answer: inhibits nitrosamine formation

Question: With `O=C(O)c1cc([N+](=O)[O-])ccc1O` [5-NSA, 5-nitro-salicylate] as the compound, how does the pIC50 [5, 19] read?
Answer: 2.79

Question: What about the pIC50 [6, 20] of the same compound?
Answer: 2.57

Question: What about the pIC50 [7] of the same compound?
Answer: 2.86

Question: What about the pIC50 [8] of the same compound?
Answer: 2.84

Question: Which results are given for `CC(=O)Oc1ccccc1C(=O)O` [Ac-salicylic acid, acetyl salicylic acid]?
Answer: Cell No. on Day 10 ([1]; HT-29, 10 mM): 14625; activity at 10000 µM ([1]; Homo sapiens, HT-29, 240 h): 1.11%; Cell No. on Day 10 ([2]; 10 mM): 8300; activity at 10000 µM ([2]; Homo sapiens, read-out: % of Control Cells): 2.24%; inhibition of colon cancer cell growth (in words) [3]: potently inhibitory; risk of colon cancer development ([13]; retrospective study (Kune et al.)): halving; increased risk of colon cancer ([13]; retrospective study (Paganini-Hill et al.)): 50%

Question: Which results are given for `O=C(O)c1cc(O)ccc1O` [Gentisate, gentisic acid]?
Answer: pIC50 [5, 19]: 2.30; pIC50 [6, 20]: 2.23; pIC50 [7]: 2.35; pIC50 [8]: 2.53; inhibition of colon cancer cell growth (in words) [3]: inhibited cell growth

Question: With `CC(=O)Nc1ccc(C(=O)NCCC(=O)O)cc1` [N-acetyl metabolite of 4-ABA] as the compound, how does the absorption [4] read?
Answer: poorly absorbed

Question: For `CC(=O)Nc1ccc(O)c(C(=O)O)c1` [N-acetyl-5-ASA], which “activity of N-acetyl metabolite of 5-ASA” value ([4]; in vivo) is on record?
Answer: inactive

Question: For `[Na+].[O-]Cl` [NaOCl, sodium hypochlorite], which Background inhibitory activity ([10]; 0.4 mM NaOCl) is on record?
Answer: less than 2%

Question: For `COc1ccc2c(c1)c(CC(=O)O)c(C)n2C(=O)c1ccc(Cl)cc1` [indomethacin], which effect on polyps [14] is on record?
Answer: no influence on polyp regression

Question: And the absorption / activation [15]?
Answer: absorbed primarily from the upper GI tract

Question: Which results are given for `CC1=C(CC(=O)O)c2cc(F)ccc2/C1=C\c1ccc([S+](C)[O-])cc1` (stereo not shown) [sulindac]?
Answer: time to regression of polyps ([14]; nine familial polyposis patients): less than 4 months; effect on polyps [14]: regression of polyps; also recorded: polyp growth resumed following sulindac withdrawal; effect on tumor incidence, dimethylhydrazine-induced [16]: reduce tumor incidence only when present during carcinogen administration; absorption / activation [15]: converted to its active metabolite, sulindac sulfide, by the colonic bacteria
